The values below come from US8445674B2, “Heterocyclyl compounds” (Hoffmann-La Roche Inc, priority 2009, dated 2013).

The term pIC50 denotes the negative decadic logarithm of the IC50, by convention in mol/L.

Molecules are shown by their SMILES. pIC50: −log10 of the molar value.

For the assay, the target named is T1, human chemokine receptor 2 isoform B (Homo sapiens, UniProt P41597).
T1 construct: host or cells: CHOK1-CCR2B-A5 cells (CHO-K1)
T1 sequence (P41597 1-360 isoform P41597-2): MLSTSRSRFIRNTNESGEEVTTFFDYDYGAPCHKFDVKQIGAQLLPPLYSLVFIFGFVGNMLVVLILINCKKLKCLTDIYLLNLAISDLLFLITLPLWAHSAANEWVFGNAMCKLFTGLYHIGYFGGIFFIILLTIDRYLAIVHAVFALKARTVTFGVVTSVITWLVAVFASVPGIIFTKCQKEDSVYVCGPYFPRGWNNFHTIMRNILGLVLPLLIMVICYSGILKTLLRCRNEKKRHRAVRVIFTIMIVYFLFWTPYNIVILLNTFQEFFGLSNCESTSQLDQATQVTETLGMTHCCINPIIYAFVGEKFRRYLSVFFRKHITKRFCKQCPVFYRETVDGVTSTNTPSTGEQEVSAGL
As to the kind of experiment: Calcium mobilization assay (FLIPR, antagonist activity against MCP-1). Format: cell-based. The following applies: Ca mobilisation assay, CHOK1-CCR2B-A5 cells, inhibition of calcium increase induced by 20 nM MCP-1. The procedure, abridged: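 CHOK1 cells stably overexpressing human CCR2B, loaded with 4 μM Fluo-4 for 2 h at 30° C, compounds added and agonist signal read by FLIPR for 80 s. After 20-30 min at 30° C, 20 nM MCP-1 was added and fluorescence read again. IC50 is 50% inhibition of specific calcium increase (max minus basal).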
As to `O=C1CCN(C(=O)Nc2ccc(Cl)c(C(F)(F)F)c2)CCN1CCCC(=O)N1CCC2(CC2)[C@H](O)C1` [Example 118, 4-[4-((S)-4-Hydroxy-6-aza-spiro[2.5]oct-6-yl)-4-oxo-butyl]-5-oxo-[1,4] diazepane-1-carboxylic acid (4-chloro-3-trifluoromethyl-phenyl)-amide], the pIC50 was 7.29.
Next, `O=C1CCN(C(=O)Nc2ccc(C(F)(F)F)c(Cl)c2)CCN1CCCC(=O)N1CCC2(CC2)[C@H](O)C1` [Example 119, 4-[4-((S)-4-Hydroxy-6-aza-spiro[2.5]oct-6-yl)-4-oxo-butyl]-5-oxo-[1,4] diazepane-1-carboxylic acid (3-chloro-4-trifluoromethyl-phenyl)-amide]: 7.75; `C[C@H]1C(=O)N(CCCC(=O)N2CCC3(CC3)[C@H](O)C2)C(C(N)=O)CN1C(=O)Nc1ccc(Cl)c(Cl)c1` (stereo partly drawn) [Example 121, (3RS,6S)-4-[4-((S)-4-Hydroxy-6-aza-spiro[2.5]oct-6-yl)-4-oxo-butyl]-6-methyl-5-oxo-piperazine-1,3-dicarboxylic acid 3-amide 1-[(3,4-dichloro-phenyl)-amide]]: 7.96; `O=C1CCN(c2ccc(OC(F)(F)F)c(Cl)c2)CCN1CCCC(=O)N1CCC2(CC2)[C@H](O)C1` [Example 122, 1-(3-Chloro-4-trifluoromethoxy-phenyl)-4-[4-((S)-4-hydroxy-6-aza-spiro[2.5]oct-6-yl)-4-oxo-butyl]-[1,4]diazepan-5-one]: 6.78.
As to `COC(=O)[C@H](CCC(=O)N1CCC2(CC2)[C@H](O)C1)N1CCN(c2ccc(C(F)(F)F)c(Cl)c2)CCC1=O` [Example 123, (S)-2-[4-(3-Chloro-4-trifluoromethyl-phenyl)-7-oxo-[1,4]diazepan-1-yl]-5-((S)-4-hydroxy-6-aza-spiro[2.5]oct-6-yl)-5-oxo-pentanoic acid methyl ester], the pIC50 is 7.20.
Turning to `O=C(CC[C@@H](CO)N1CCN(c2ccc(C(F)(F)F)c(Cl)c2)CCC1=O)N1CCC2(CC2)[C@H](O)C1` [Example 124, 1-(3-Chloro-4-trifluoromethyl-phenyl)-4-[(S)-4-((S)-4-hydroxy-6-aza-spiro[2.5]oct-6-yl)-1-hydroxymethyl-4-oxo-butyl]-[1,4]diazepan-5-one], the pIC50 is 8.10.
The value for `C[C@@H]1CN(CCCC(=O)N2CCC3(CC3)[C@H](O)C2)C(=O)C=CN1c1ccc(Cl)c(C(F)(F)F)c1` [Example 125, (R)-1-(4-Chloro-3-trifluoromethyl-phenyl)-4-[4-((S)-4-hydroxy-6-aza-spiro[2.5]oct-6-yl)-4-oxo-butyl]-2-methyl-1,2,3,4-tetrahydro-[1,4]diazepin-5-one] was 5.56; that for `C[C@@H]1CN(CCCC(=O)N2CCC3(CC3)[C@H](O)C2)C(=O)CCN1c1ccc(Cl)c(C(F)(F)F)c1` [Example 126, (R)-1-(4-Chloro-3-trifluoromethyl-phenyl)-4-[4-((S)-4-hydroxy-6-aza-spiro[2.5]oct-6-yl)-4-oxo-butyl]-2-methyl-[1,4]diazepan-5-one] was 5.57.
In the case of `COC(=O)[C@H](CCC(=O)N1CCC2(CC2)[C@H](O)C1)N1CC(C)N(c2ccc(C(F)(F)F)c(C(F)(F)F)c2)CCC1=O` (stereo partly drawn) [Example 127, (S)-2-[(R,S)-4-(3,4-Bis-trifluoromethyl-phenyl)-3-methyl-7-oxo-[1,4]diazepan-1-yl]-5-((S)-4-hydroxy-6-aza-spiro[2.5]oct-6-yl)-5-oxo-pentanoic acid methyl ester], the pIC50 is 6.72.
Next, `C[C@@H]1CN([C@H](CO)CCC(=O)N2CCC3(CC3)[C@H](O)C2)C(=O)CCN1c1ccc(C(F)(F)F)c(C(F)(F)F)c1` [Example 128, (R)-1-(3,4-bis-trifluoromethyl-phenyl)-4-[(S)-4-((S)-4-hydroxy-6-aza-spiro[2.5]oct-6-yl)-1-hydroxymethyl-4-oxo-butyl]-2-methyl-[1,4]diazepan-5-one]: 8.34.
As to `C[C@H]1C(=O)N(CCCC(=O)N2CCC3(CC3)[C@H](O)C2)CCN1c1ccc(C(F)(F)F)c(C(F)(F)F)c1` [Example 130, (S)-4-(3,4-Bis-trifluoromethyl-phenyl)-1-[4-((S)-4-hydroxy-6-aza-spiro[2.5]oct-6-yl)-4-oxo-butyl]-3-methyl-piperazin-2-one], the pIC50 was 7.43.
Turning to `C[C@H]1C(=O)N(C[C@@H](O)CC(=O)N2CCC3(CC3)[C@H](O)C2)CCN1c1ccc(C(F)(F)F)c(Cl)c1` [Example 131, (S)-4-(3-Chloro-4-trifluoromethyl-phenyl)-1-[(S)-2-hydroxy-4-((S)-4-hydroxy-6-aza-spiro[2.5]oct-6-yl)-4-oxo-butyl]-3-methyl-piperazin-2-one], the pIC50 is 7.88.
The value for `COC[C@H](CCC(=O)N1CCC2(CC2)[C@H](O)C1)N1CCN(c2ccc(C(F)(F)F)c(Cl)c2)[C@@H](C)C1=O` [Example 132, (S)-4-(3-Chloro-4-trifluoromethyl-phenyl)-1-[(S)-4-((S)-4-hydroxy-6-aza-spiro[2.5]oct-6-yl)-1-methoxymethyl-4-oxo-butyl]-3-methyl-piperazin-2-one] was 6.51.
Next, `C[C@H]1C(=O)N(CCC(O)C(=O)N2CCC3(CC3)[C@H](O)C2)CCN1C(=O)Nc1ccc(C(F)(F)F)c(Cl)c1` (stereo partly drawn) [Example 133, (S)-4-[(R,S)-3-Hydroxy-4-((S)-4-hydroxy-6-aza-spiro[2.5]oct-6-yl)-4-oxo-butyl]-2-methyl-3-oxo-piperazine-1-carboxylic acid (3-chloro-4-trifluoromethyl-phenyl)-amide]: 6.87; `C[C@H]1C(=O)N(CC[C@H](O)C(=O)N2CCC3(CC3)[C@H](O)C2)CCN1C(=O)Nc1ccc(C(F)(F)F)c(Cl)c1` [Example 134, (S)-4-[(S)-3-Hydroxy-4-((S)-4-hydroxy-6-aza-spiro[2.5]oct-6-yl)-4-oxo-butyl]-2-methyl-3-oxo-piperazine-1-carboxylic acid (3-chloro-4-trifluoromethyl-phenyl)-amide]: 6.73.
In the case of `C[C@H]1C(=O)N(CCC(O)C(=O)N2CCC3(CC3)[C@H](O)C2)CCN1C(=O)Nc1ccc(C(F)(F)F)c(C(F)(F)F)c1` (stereo partly drawn) [Example 135, (S)-4-[(R,S)-3-Hydroxy-4-((S)-4-hydroxy-6-aza-spiro[2.5]oct-6-yl)-4-oxo-butyl]-2-methyl-3-oxo-piperazine-1-carboxylic acid (3,4-bis-trifluoromethyl-phenyl)-amide], the pIC50 is 7.21.
Turning to `C[C@H]1C(=O)N(CCC(F)C(=O)N2CCC3(CC3)[C@H](O)C2)CCN1C(=O)Nc1ccc(C(F)(F)F)c(Cl)c1` (stereo partly drawn) [Example 136, (S)-4-[(R,S)-3-Fluoro-4-((S)-4-hydroxy-6-aza-spiro[2.5]oct-6-yl)-4-oxo-butyl]-2-methyl-3-oxo-piperazine-1-carboxylic acid (3-chloro-4-trifluoromethyl-phenyl)-amide], the pIC50 was 8.33.
Turning to `COC[C@H](CCC(=O)N1CCC2(CC2)[C@H](O)C1)N1CCN(C(=O)Nc2ccc(C(F)(F)F)c(Cl)c2)[C@@H](C)C1=O` [Example 139, (S)-4-[(S)-4-((S)-4-Hydroxy-6-aza-spiro[2.5]oct-6-yl)-1-methoxymethyl-4-oxo-butyl]-2-methyl-3-oxo-piperazine-1-carboxylic acid (3-chloro-4-trifluoromethyl-phenyl)-amide], the pIC50 was 6.82.
Regarding `C[C@H]1C(=O)N([C@@H](CCC(=O)N2CCC3(CC3)[C@H](O)C2)C(=O)O)CCN1C(=O)Nc1ccc(C(F)(F)F)c(Cl)c1` [Example 140, (S)-2-[(S)-4-(3-Chloro-4-trifluoromethyl-phenylcarbamoyl)-3-methyl-2-oxo-piperazin-1-yl]-5-((S)-4-hydroxy-6-aza-spiro[2.5]oct-6-yl)-5-oxo-pentanoic acid], the pIC50 was 6.12.
In the case of `C[C@H]1C(=O)N([C@@H](CCC(=O)N2CCC3(CC3)[C@H](O)C2)C(N)=O)CCN1C(=O)Nc1ccc(C(F)(F)F)c(Cl)c1` [Example 141, (S)-4-[(S)-1-Carbamoyl-4-((S)-4-hydroxy-6-aza-spiro[2.5]oct-6-yl)-4-oxo-butyl]-2-methyl-3-oxo-piperazine-1-carboxylic acid (3-chloro-4-trifluoromethyl-phenyl)-amide], the pIC50 was 6.30.
Regarding `CNC(=O)[C@H](CCC(=O)N1CCC2(CC2)[C@H](O)C1)N1CCN(C(=O)Nc2ccc(C(F)(F)F)c(Cl)c2)[C@@H](C)C1=O` [Example 142, (S)-4-[(S)-4-((S)-4-Hydroxy-6-aza-spiro[2.5]oct-6-yl)-1-methylcarbamoyl-4-oxo-butyl]-2-methyl-3-oxo-piperazine-1-carboxylic acid (3-chloro-4-trifluoromethyl-phenyl)-amide], the pIC50 was 5.88.
For the molecule `COC(=O)[C@H](CCC(=O)N1CCC2(CC2)[C@H](O)C1)N1CCN(C(=O)Nc2ccc(C(F)(F)F)c(C(F)(F)F)c2)[C@@H](C)C1=O` [Example 143, (S)-2-[(S)-4-(3,4-Bis-trifluoromethyl-phenylcarbamoyl)-3-methyl-2-oxo-piperazin-1-yl]-5-((S)-4-hydroxy-6-aza-spiro[2.5]oct-6-yl)-5-oxo-pentanoic acid methyl ester], the pIC50 is 6.47.
Consider `C[C@H]1C(=O)N([C@H](CO)CCC(=O)N2CCC3(CC3)[C@H](O)C2)CCN1C(=O)Nc1ccc(C(F)(F)F)c(C(F)(F)F)c1` [Example 144, (S)-4-[(S)-4-((S)-4-Hydroxy-6-aza-spiro[2.5]oct-6-yl)-1-hydroxymethyl-4-oxo-butyl]-2-methyl-3-oxo-piperazine-1-carboxylic acid (3,4-bis-trifluoromethyl-phenyl)-amide], for which the pIC50 was 8.35.
